Test systems include Bacillus subtilis; Botrytis cinerea; Escherichia coli; Fusarium verticillioides; Proteus vulgaris; Pseudomonas aeruginosa; Saccharomyces cerevisiae; Salmonella typhimurium; Staphylococcus aureus; Trichosporon beigelii; Escherichia coli HB101; Bacillus cereus C737; Escherichia coli UB1005; Aeromonas hydrophila; Vibrio harveyi; Vibrio parahaemolyticus.
Common to all, as to test: ≥ marks a high value that may be exact or a test limit, other limits are often not marked, values filed in µg/mL are converted to µM
Assay [1] has as its system Aspergillus flavus KCTC 9471.
The test system of assay [2] is Aspergillus fumigatus KCTC 6145.
The test system of assay [3] is Candida albicans KCTC 7270.
Assay [4] deals with Escherichia coli O157:H7 ATCC 43895.
Assay [5] concerns Listeria monocytogenes KCTC 3710.
In assay [6] the test system is Staphylococcus epidermidis.
The subject of assay [7] is Leishmania major MHOM/IL/67/JERICHO-II.
The test system of assay [8] is Staphylococcus aureus Cowan 1.
Assay [9] concerns Pseudomonas aeruginosa PAO1.
Assay [10] deals with Bacillus subtilis CMCC 63501.
The subject of assay [11] is Enterococcus faecalis ATCC 29212.
Assay [12] has as its system Escherichia coli ATCC 25922.
The subject of assay [13] is Salmonella enterica subsp. enterica serovar Pullorum C79-13.
Assay [14] deals with Salmonella enterica subsp. enterica serovar Typhimurium ATCC 14028.
Assay [15] has as its system Staphylococcus aureus ATCC 29213.
The test system of assay [16] is Staphylococcus epidermidis ATCC 12228.

Values after ≈ are worked out from the molar mass of the structure shown.

Regarding `CC[C@H](C)[C@H](NC(=O)[C@H](CCCCN)NC(=O)[C@H](CO)NC(=O)[C@H](Cc1ccccc1)NC(=O)[C@H](CC(C)C)NC(=O)[C@H](CCCCN)NC(=O)[C@H](CCC(=O)O)NC(=O)[C@H](CC(C)C)NC(=O)[C@H](CCCN=C(N)N)NC(=O)[C@H](CCCCN)NC(=O)[C@H](Cc1ccccc1)NC(=O)[C@@H](NC(=O)[C@H](CCCCN)NC(=O)[C@H](CCCCN)NC(=O)[C@H](C)N)C(C)C)C(=O)N[C@@H](Cc1c[nH]c2ccccc12)C(=O)N[C@@H](CC(N)=O)C(=O)N[C@@H](CC(=O)O)C(=O)N[C@@H](CCCCN)C(N)=O` [AKKVFKRLEKLFSKIWNDK], the MIC is not below 50 µM in [1]; not below 50 µM in assay [2]; 1.56 µM (≈ 3.71 µg/mL) with Bacillus subtilis; 6.25 µM (≈ 14.9 µg/mL) against Botrytis cinerea; 25 µM (≈ 59.4 µg/mL) in [3]; 6.25 µM (≈ 14.9 µg/mL) in assay [4]. The MIC amounted to 3.13 µM (≈ 7.44 µg/mL) in the assay with Escherichia coli; 25 µM (≈ 59.4 µg/mL) with Fusarium verticillioides; 1.56 µM (≈ 3.71 µg/mL) in assay [5]; 3.13 µM (≈ 7.44 µg/mL) against Proteus vulgaris; 6.25 µM (≈ 14.9 µg/mL) with Pseudomonas aeruginosa; 25 µM (≈ 59.4 µg/mL) against Saccharomyces cerevisiae. The minimal inhibitory concentration (MIC) against Salmonella typhimurium was determined as 0.78 µM (≈ 1.85 µg/mL); with Staphylococcus aureus, 6.25 µM (≈ 14.9 µg/mL); in assay [6] it was 3.13 µM (≈ 7.44 µg/mL); against Trichosporon beigelii, 1.56 µM (≈ 3.71 µg/mL).
In the case of `CC[C@H](C)[C@H](NC(=O)[C@@H](NC(=O)[C@H](CC(=O)O)NC(=O)[C@H](C)NC(=O)[C@H](C)NC(=O)[C@H](C)NC(=O)CNC(=O)[C@H](CC(C)C)NC(=O)[C@H](C)NC(=O)[C@H](C)NC(=O)[C@H](CCCCN)NC(=O)CNC(=O)[C@H](C)NC(=O)[C@H](Cc1cnc[nH]1)NC(=O)[C@H](CC(C)C)NC(=O)[C@H](C)NC(=O)[C@H](CCSC)NC(=O)[C@@H](NC(=O)CNC(=O)[C@H](CC(C)C)NC(=O)[C@H](CCCCN)NC(=O)[C@H](CCCCN)NC(=O)[C@H](CC(C)C)NC(=O)[C@H](CCSC)NC(=O)[C@@H](NC(=O)[C@H](CCCCN)NC(=O)[C@H](Cc1c[nH]c2ccccc12)NC(=O)[C@H](CC(C)C)NC(=O)[C@H](C)N)[C@@H](C)O)[C@@H](C)O)[C@@H](C)O)C(N)=O` [ALWKTMLKKLGTMALHAGKAALGAAADTI], the values for the MIC (in the assay with Escherichia coli HB101; in assay [7]; in assay [8]) were 2.7 µM (≈ 7.97 µg/mL), 6.1 µM (≈ 18 µg/mL) and 2.7 µM (≈ 7.97 µg/mL), respectively.
For the compound `CSCC[C@H](NC(=O)[C@@H](NC(=O)CNC(=O)[C@H](CC(C)C)NC(=O)[C@H](CCCCN)NC(=O)[C@H](CCCCN)NC(=O)[C@H](CC(C)C)NC(=O)[C@H](CCSC)NC(=O)[C@@H](NC(=O)[C@H](CCCCN)NC(=O)[C@H](Cc1c[nH]c2ccccc12)NC(=O)[C@H](CC(C)C)NC(=O)[C@H](C)N)[C@@H](C)O)[C@@H](C)O)C(=O)N[C@@H](C)C(=O)N[C@@H](CC(C)C)C(=O)N[C@@H](Cc1cnc[nH]1)C(=O)N[C@@H](C)C(=O)NCC(=O)N[C@@H](CCCCN)C(N)=O` [ALWKTMLKKLGTMALHAGK], the MIC is 3.6 µM (≈ 7.55 µg/mL) in the assay on Escherichia coli HB101, 17.9 µM (≈ 37.5 µg/mL) in assay [7] and not below 35.9 µM in assay [8].
Consider `CC[C@H](C)[C@H](NC(=O)[C@H](CC(=O)O)NC(=O)[C@H](Cc1ccccc1)NC(=O)[C@H](CC(C)C)NC(=O)CN)C(=O)N[C@H](C(=O)N[C@@H](CCCCN)C(=O)N[C@@H](CCCCN)C(=O)N[C@H](C(=O)N[C@H](C(=O)NCC(=O)N[C@@H](C)C(=O)N[C@@H](C)C(=O)NCC(=O)N[C@@H](CO)C(=O)N[C@@H](CC(C)C)C(N)=O)C(C)C)C(C)C)C(C)C` [GLFDIVKKVVGAAGSL], for which the MIC in the assay on Bacillus cereus C737 is not below 81.3 µM; with Escherichia coli UB1005, not below 81.3 µM; in assay [9], more than 81.3 µM.
Consider `CC[C@H](C)[C@H](NC(=O)[C@H](CC(C)C)NC(=O)[C@H](CCC(=O)O)NC(=O)CNC(=O)[C@H](CC(C)C)NC(=O)[C@H](Cc1cnc[nH]1)NC(=O)CNC(=O)[C@H](CCCCN)NC(=O)[C@@H](NC(=O)[C@H](Cc1ccccc1)NC(=O)[C@H](CCCCN)NC(=O)[C@H](CCCCN)NC(=O)[C@H](CS)NC(=O)[C@H](CC(C)C)NC(=O)[C@H](CO)NC(=O)[C@H](CCCCN)NC(=O)[C@H](CC(C)C)NC(=O)[C@H](CC(C)C)NC(=O)CN)C(C)C)C(=O)N[C@@H](CCC(=O)O)C(=O)N[C@@H](CCC(=O)O)C(=O)N[C@@H](CC(C)C)C(=O)N[C@H](C(=O)N[C@H](C(=O)N[C@@H](CO)C(=O)N[C@@H](CC(=O)O)C(=O)N[C@@H](CC(=O)O)C(=O)O)[C@@H](C)O)[C@@H](C)O` [GLLKSLCKKFVKGHLGELIEELTTSDD], for which the MIC in the assay with Aeromonas hydrophila was not below 96 µM; in the assay with Bacillus subtilis, not below 33.9 µM; in the assay with Escherichia coli, 17 µM (≈ 50.5 µg/mL); with Staphylococcus aureus, 17 µM (≈ 50.5 µg/mL); with Vibrio harveyi, 17 µM (≈ 50.5 µg/mL); with Vibrio parahaemolyticus it was not below 96 µM.
Consider `CC[C@H](C)[C@H](NC(=O)[C@H](C)NC(=O)[C@H](CC(C)C)NC(=O)[C@@H]1CCCN1C(=O)[C@@H](NC(=O)[C@H](CC(C)C)NC(=O)[C@H](CCC(N)=O)NC(=O)[C@H](Cc1c[nH]c2ccccc12)NC(=O)[C@H](Cc1ccccc1)NC(=O)[C@H](CCCN=C(N)N)NC(=O)[C@@H](N)CCCCN)C(C)C)C(=O)N[C@@H](CCCCN)C(=O)N[C@H](C(=O)N[C@@H](Cc1ccc(O)cc1)C(=O)N[C@@H](CCCN=C(N)N)C(=O)N[C@@H](C)C(=O)N[C@@H](Cc1c[nH]c2ccccc12)C(=O)N[C@@H](CCCCN)C(=O)N[C@@H](CCCN=C(N)N)C(=O)N[C@@H](CCCN=C(N)N)C(=O)O)[C@@H](C)CC` [KRFWQLVPLAIKIYRAWKRR], for which the MIC was 8 µM (≈ 21 µg/mL) in assay [10]; 4 µM (≈ 10.5 µg/mL) in [11]; 2 µM (≈ 5.26 µg/mL) in assay [12]; 2 µM (≈ 5.26 µg/mL) against Escherichia coli UB1005; 8 µM (≈ 21 µg/mL) in assay [13]; 4 µM (≈ 10.5 µg/mL) in assay [14]. The MIC in assay [15] and in assay [16] was 4 µM (≈ 10.5 µg/mL) in each case.
For `CC[C@H](C)[C@H](NC(=O)[C@H](CCC(=O)O)NC(=O)[C@H](CC(N)=O)NC(=O)[C@H](CS)NC(=O)[C@@H](N)C(C)C)C(=O)NCC(=O)N[C@@H](CC(C)C)C(=O)N[C@@H](CC(C)C)C(=O)N[C@@H](CCCCN)C(=O)N[C@@H](CO)C(=O)N[C@@H](CC(C)C)C(=O)N[C@@H](CS)C(=O)N[C@@H](CCCCN)C(=O)N[C@@H](CCCCN)C(=O)N[C@@H](Cc1ccccc1)C(=O)N[C@H](C(=O)N[C@@H](CCCCN)C(=O)NCC(=O)N[C@@H](Cc1cnc[nH]1)C(=O)N[C@@H](CC(C)C)C(=O)NCC(=O)N[C@@H](CCC(=O)O)C(=O)O)C(C)C` [VCNEIGLLKSLCKKFVKGHLGE], the MIC was not below 96 µM against Aeromonas hydrophila; not below 96 µM with Bacillus subtilis; 33.9 µM (≈ 82 µg/mL) against Escherichia coli; 17 µM (≈ 41 µg/mL) in the assay with Staphylococcus aureus; not below 96 µM against Vibrio harveyi; not below 96 µM against Vibrio parahaemolyticus.

(Values after DBAASP.)
